Laboratory results as given in US8871753B2, “Macrocyclic compounds and their use as kinase inhibitors” (Incyte Corporation, priority 2008, dated 2014).
Structures can show the parent of a compound that is named as a salt. Where two headings read alike, the source gives them in different places.

Legend:
[1] = cn_pd bond, 13-membered ring, Pd(OAc)2/Xantphos/Cs2CO3/Et3N, 1,4-dioxane/DMF 1:1, 160.0 °C
[2] = target: T1, human JAK1 (a.a. 837-1142) (Homo sapiens, UniProt P23458); assay: In vitro JAK kinase assay (HTRF, phosphorylation of a biotinylated peptide), JAK1; type: biochemical; settings: read-out: JAK1 IC50
T1 construct: human JAK1 (a.a. 837-1142); His tag (N); made in house; host or cells: insect cells (baculovirus)
T1 sequence (P23458 849-1154): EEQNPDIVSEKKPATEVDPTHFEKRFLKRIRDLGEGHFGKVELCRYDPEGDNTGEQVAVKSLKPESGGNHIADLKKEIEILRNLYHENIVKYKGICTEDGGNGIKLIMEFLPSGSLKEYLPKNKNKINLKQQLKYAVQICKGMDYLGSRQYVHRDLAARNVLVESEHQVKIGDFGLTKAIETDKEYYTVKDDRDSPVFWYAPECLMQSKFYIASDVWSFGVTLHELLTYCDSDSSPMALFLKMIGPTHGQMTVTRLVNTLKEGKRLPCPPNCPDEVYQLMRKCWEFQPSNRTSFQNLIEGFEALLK
Procedure, shortened: (§1)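 Phosphorylation of a biotinylated peptide by the JAK kinase domain, detected by HTRF with Eu-Py20 and SA-APC. ATP was 90 μM for JAK1, 30 μM for JAK2 and 3 μM for JAK3. Reactions ran 1 h at room temperature and were stopped with EDTA, followed by 40 min antibody binding.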

[3] = target: T2, human JAK2 (a.a. 828-1132) (Homo sapiens, UniProt O60674); assay: In vitro JAK kinase assay (HTRF, phosphorylation of a biotinylated peptide), JAK2; type: biochemical
T2 construct: JAK2 (a.a. 828-1132); His tag (N); made in house; host or cells: insect cells (baculovirus)
T2 sequence (O60674 828-1132): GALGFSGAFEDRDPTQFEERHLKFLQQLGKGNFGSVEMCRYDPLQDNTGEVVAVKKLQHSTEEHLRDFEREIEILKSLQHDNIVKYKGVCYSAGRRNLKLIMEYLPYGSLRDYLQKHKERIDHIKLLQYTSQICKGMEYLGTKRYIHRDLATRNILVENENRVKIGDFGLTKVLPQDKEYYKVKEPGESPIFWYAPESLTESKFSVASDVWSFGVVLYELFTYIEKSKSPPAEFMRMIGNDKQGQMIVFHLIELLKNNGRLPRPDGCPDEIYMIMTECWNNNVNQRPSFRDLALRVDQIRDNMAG
Procedure, shortened: as §1

[4] = target: T3, human JAK3 (a.a. 781-1124) (Homo sapiens, UniProt P52333); assay: In vitro JAK kinase assay (HTRF, phosphorylation of a biotinylated peptide), JAK3; type: biochemical
T3 construct: JAK3 (a.a. 781-1124); His tag (N); made in house; host or cells: insect cells (baculovirus)
T3 sequence (P52333 781-1124): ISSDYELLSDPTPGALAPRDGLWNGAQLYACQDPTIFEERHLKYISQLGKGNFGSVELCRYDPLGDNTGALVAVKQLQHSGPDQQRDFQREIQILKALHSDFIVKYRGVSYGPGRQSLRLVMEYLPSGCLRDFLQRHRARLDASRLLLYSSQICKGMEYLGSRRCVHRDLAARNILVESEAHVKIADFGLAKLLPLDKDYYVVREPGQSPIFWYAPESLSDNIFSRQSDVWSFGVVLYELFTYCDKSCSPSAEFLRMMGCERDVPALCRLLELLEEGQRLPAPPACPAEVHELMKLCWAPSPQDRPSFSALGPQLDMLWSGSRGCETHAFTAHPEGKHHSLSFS
Procedure, shortened: as §1

TYK2 = TYK2 (Homo sapiens, UniProt P29597); assay: TYK2 kinase inhibition (Table A1); type: biochemical
Sequence of TYK2 (P29597 whole entry): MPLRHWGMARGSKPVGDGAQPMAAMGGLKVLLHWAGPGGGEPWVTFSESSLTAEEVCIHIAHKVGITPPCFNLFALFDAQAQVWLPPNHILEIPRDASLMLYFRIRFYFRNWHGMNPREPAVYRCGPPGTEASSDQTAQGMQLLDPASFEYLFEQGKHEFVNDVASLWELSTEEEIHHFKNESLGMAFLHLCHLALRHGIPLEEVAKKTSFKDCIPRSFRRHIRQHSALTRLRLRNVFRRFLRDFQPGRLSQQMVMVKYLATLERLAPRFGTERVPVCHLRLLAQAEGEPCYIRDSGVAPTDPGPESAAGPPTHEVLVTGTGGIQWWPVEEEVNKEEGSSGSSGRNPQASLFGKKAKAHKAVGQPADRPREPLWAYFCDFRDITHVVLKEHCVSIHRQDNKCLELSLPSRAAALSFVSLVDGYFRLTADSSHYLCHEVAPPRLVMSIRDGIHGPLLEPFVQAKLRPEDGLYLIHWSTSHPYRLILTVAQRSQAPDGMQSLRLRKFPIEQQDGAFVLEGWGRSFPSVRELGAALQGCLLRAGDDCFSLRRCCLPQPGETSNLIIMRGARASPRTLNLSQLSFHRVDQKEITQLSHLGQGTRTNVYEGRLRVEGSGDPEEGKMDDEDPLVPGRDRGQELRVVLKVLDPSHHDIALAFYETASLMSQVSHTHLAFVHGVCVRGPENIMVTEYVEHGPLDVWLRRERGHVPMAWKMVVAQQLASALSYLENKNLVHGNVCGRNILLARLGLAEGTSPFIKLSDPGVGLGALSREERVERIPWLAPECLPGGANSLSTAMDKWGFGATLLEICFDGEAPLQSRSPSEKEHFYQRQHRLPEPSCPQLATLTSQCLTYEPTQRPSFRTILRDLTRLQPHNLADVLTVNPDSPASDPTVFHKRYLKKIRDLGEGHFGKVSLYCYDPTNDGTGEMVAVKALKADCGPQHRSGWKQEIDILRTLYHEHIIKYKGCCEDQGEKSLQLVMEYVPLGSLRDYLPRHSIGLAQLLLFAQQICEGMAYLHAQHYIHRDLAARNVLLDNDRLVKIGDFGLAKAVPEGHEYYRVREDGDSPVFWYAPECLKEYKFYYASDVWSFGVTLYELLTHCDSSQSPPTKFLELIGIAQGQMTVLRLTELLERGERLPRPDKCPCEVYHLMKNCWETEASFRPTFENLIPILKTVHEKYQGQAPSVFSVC

[5] = target: T4, Recombinant Human Anaplastic Lymphoma Kinase (Homo sapiens, UniProt Q9UM73); assay: ALK HTRF kinase assay; type: biochemical; settings: for ALK % inhibition at a concentration of 500 nM or 1 mM: compound at a concentration of 500 nM or 1 mM
T4 construct: purchased Invitrogen, Carlsbad, Calif
T4 sequence (Q9UM73 19-1620): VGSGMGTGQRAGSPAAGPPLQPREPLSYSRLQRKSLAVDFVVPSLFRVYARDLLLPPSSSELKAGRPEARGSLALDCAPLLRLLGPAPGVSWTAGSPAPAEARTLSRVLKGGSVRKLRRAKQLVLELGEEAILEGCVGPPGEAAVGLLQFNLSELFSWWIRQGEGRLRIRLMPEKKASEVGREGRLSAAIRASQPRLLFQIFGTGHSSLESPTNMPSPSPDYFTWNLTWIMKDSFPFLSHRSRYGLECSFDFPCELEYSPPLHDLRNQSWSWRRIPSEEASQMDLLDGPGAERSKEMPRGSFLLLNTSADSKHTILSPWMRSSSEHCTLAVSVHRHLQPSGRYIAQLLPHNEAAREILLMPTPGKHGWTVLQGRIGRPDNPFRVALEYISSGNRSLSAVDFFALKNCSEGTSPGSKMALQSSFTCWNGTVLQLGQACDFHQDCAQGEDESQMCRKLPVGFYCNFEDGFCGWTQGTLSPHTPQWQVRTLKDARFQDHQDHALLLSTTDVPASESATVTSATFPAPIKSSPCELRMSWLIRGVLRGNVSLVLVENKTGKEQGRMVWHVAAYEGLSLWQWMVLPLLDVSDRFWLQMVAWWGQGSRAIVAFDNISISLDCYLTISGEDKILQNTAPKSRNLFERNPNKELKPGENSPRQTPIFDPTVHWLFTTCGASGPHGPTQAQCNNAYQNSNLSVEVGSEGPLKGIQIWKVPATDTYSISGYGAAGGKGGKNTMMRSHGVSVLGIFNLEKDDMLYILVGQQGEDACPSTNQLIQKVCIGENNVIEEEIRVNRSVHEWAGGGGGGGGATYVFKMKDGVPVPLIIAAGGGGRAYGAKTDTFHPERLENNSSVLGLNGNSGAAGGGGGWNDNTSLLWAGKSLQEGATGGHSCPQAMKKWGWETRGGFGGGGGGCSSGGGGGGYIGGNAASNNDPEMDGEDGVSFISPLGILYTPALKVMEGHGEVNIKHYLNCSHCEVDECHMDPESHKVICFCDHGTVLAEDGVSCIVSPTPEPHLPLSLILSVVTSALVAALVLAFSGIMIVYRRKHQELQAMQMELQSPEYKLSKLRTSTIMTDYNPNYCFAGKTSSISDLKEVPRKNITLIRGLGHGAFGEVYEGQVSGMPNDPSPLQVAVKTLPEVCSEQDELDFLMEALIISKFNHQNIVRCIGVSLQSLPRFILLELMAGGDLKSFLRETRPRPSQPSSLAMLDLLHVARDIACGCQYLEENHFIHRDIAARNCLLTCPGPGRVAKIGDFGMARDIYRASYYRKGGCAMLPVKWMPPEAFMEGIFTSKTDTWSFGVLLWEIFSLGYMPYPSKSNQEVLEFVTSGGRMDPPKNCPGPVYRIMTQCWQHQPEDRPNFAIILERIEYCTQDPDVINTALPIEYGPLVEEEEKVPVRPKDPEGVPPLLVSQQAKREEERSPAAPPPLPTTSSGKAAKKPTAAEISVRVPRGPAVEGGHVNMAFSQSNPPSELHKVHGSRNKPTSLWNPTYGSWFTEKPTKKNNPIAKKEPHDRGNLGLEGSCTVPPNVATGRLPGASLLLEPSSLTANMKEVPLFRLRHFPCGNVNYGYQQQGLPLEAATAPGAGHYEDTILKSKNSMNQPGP
Procedure, shortened: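 Recombinant human ALK phosphorylated a biotinylated synthetic peptide. Phosphotyrosine was detected by TR-FRET between a Eu-labelled anti-phosphotyrosine antibody and streptavidin-allophycocyanin. IC50 values came from fitting signal against inhibitor concentration to a four-parameter logistic equation with variable Hill slope.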

[6] = compound at a concentration of 500 nM or 1 mM (not specified), cells shown as percentage
[7] = method AA1 (90 μM ATP) or AA2 (1000 μM ATP), not stated per value
[8] = method AA1 (30 μM ATP) or AA2 (1000 μM ATP), not stated per value
[9] = method AA1 (3 μM ATP) or AA2 (1000 μM ATP), not stated per value
[10] = compound at 500 nM or 1 mM, 90 μM ATP

Fc1cnc2nc1Nc1cccc(c1)CCc1cccc(n1)N2 [Example C18, 6-Fluoro-2,4,8,20,22-pentaazatetracyclo[14.3.1.1(3,7).1(9,13)]docosa-1(20),3(22),4,6,9(21),10,12,16,18-nonaene] showed a ring closure, isolated yield ([1]; from Nc1cccc(CCc2cccc(Nc3nc(Cl)ncc3F)c2)n1, 60.0 mM, 1.0 h) of 25%, an IC50 [2] greater than 1000 nM and an IC50 [3] greater than 1000 nM. For the same compound, the IC50 [4] was greater than 1000 nM, the IC50 (TYK2) was greater than 1000 nM and the “ALK % inhibition at a concentration of 500 nM or 1 mM” value (from here on “ALK % inhibition at a concentration”) [5] was 3%.

Nc1ccc2cc1CCc1cncc(c1)Nc1ncc(Cl)c(n1)N2 [Example B20, 6-Chloro-2,4,8,18,22-pentaazatetracyclo[14.3.1.1(3,7).1(9,13)]docosa-1(20),3(22),4,6,9(21),10,12,16,18-nonaen-12-amine tris(trifluoroacetate)] showed a ring closure, yield after HPLC (from Nc1cncc(CCc2cc(Nc3nc(Cl)ncc3Cl)ccc2N)c1, cn_pd bond, 13-membered ring, Pd2(dba)3/Xantphos/Cs2CO3/DIEA, 1,4-dioxane/DMF 3:1, 77.0 mM, 160.0 °C, 0.5 h) of 23%, an IC50 ([2]; Table B1) of 1 nM and an IC50 ([3]; Table B1) of 1.3 nM. The IC50 ([4]; Table B1) was 6.7 nM, the IC50 (TYK2; Table B1) was 1.6 nM and the “ALK % of inhibition at a concentration of 500 nM or 1 mM” value (from here on “ALK % of inhibition”) [5, 6] was 51%.

In the case of Clc1cnc2nc1Nc1cccc(c1)CCc1cncc(c1)N2 [Example C19, 6-Chloro-2,4,8,18,22-pentaazatetracyclo[14.3.1.1(3,7).1(9,13)]docosa-1(20),3(22),4,6,9(21),10,12,16,18-nonaene bis(trifluoroacetate)], the ring closure, yield after HPLC (from Nc1cncc(CCc2cccc(Nc3nc(Cl)ncc3Cl)c2)c1, cn_pd bond, 13-membered ring, Pd(OAc)2/Xantphos/Cs2CO3/Et3N, 1,4-dioxane, 140.0 mM, 150.0 °C, 1.0 h) is reported as 28%, the IC50 [2] is reported as 2.9 nM and the IC50 [3] is reported as 7 nM. The IC50 [4] was 28 nM, the IC50 (TYK2) was 10 nM and the “ALK % inhibition at a concentration” value [5] was 45%.

Clc1cnc2nc1Nc1cccc(c1)CCOc1cccc(c1)N2 [Example D5, 6-Chloro-16-oxa-2,4,8,23-tetraazatetracyclo[15.3.1.1(3,7).1(9,13)]tricosa-1(21),3(23),4,6,9(22),10,12,17,19-nonaene trifluoroacetate] showed a ring closure, yield after HPLC (from OCCc1cccc(Nc2nc(Nc3cccc(O)c3)ncc2Cl)c1, ether bond, 14-membered ring, PPh3/DIAD, THF, 8.5 mM, 25.0 °C, 2.0 h) of 20%, an IC50 ([2]; Table D1) of 30 nM and an IC50 ([3]; Table D1) of 15 nM. For the same compound, the IC50 ([4]; Table D1) was 36 nM, the IC50 (TYK2; Table D1) was 12 nM and the IC50 ([5]; Table D1, 90 μM ATP) was 509 nM.

For Nc1ccc2cc1CCc1cncc(c1)Nc1ncc(F)c(n1)N2, the ring closure, yield after HPLC (from Nc1cncc(CCc2cc(Nc3nc(Cl)ncc3F)ccc2N)c1, cn_pd bond, 13-membered ring, Pd(OAc)2/Xantphos/Cs2CO3/Et3N, 1,4-dioxane, 158.0 mM, 160.0 °C, 0.33 h) was 8%.

In the case of Clc1cnc2nc1Nc1cccc(c1)CCc1ccnc(c1)N2 [Example C15, 6-Chloro-2,4,8,19,22-pentaazatetracyclo[14.3.1.1(3,7).1(9,13)]docosa-1(20),3(22),4,6,9(21),10,12,16,18-nonaene], the ring closure, isolated yield ([1]; from Nc1cc(CCc2cccc(Nc3nc(Cl)ncc3Cl)c2)ccn1, 57.0 mM, 0.33 h) is reported as 61%, the IC50 [2] is reported as 700 nM and the IC50 [3] is reported as 87 nM. For the same compound, the IC50 (TYK2) was 106 nM and the “ALK % inhibition at a concentration” value [5] was 6%.

In the case of Cc1cnc2nc1Nc1ccc(N)c(c1)CCc1cncc(c1)N2 [Example C50, 6-Methyl-2,4,8,18,22-pentaazatetracyclo[14.3.1.1(3,7).1(9,13)]docosa-1(20),3(22),4,6,9(21),10,12,16,18-nonaen-12-amine tris(trifluoroacetate)], the ring closure, yield after HPLC (from Cc1cnc(Cl)nc1Nc1ccc(N)c(CCc2cncc(N)c2)c1, cn_pd bond, 13-membered ring, Pd(OAc)2/Xantphos/Cs2CO3/Et3N, 1,4-dioxane, 135.0 mM, 160.0 °C, 0.33 h) is reported as 50%, the IC50 [2] is reported as 33 nM and the IC50 [3] is reported as 111 nM. It also gave an IC50 [4] greater than 400 nM and an IC50 (TYK2) of 80 nM.

For Fc1cnc2nc1Nc1cccc(c1)CCc1cncc(c1)N2 [Example C21, 6-Fluoro-2,4,8,18,22-pentaazatetracyclo[14.3.1.1(3,7).1(9,13)]docosa-1(20),3(22),4,6,9(21),10,12,16,18-nonaene bis(trifluoroacetate)], the ring closure, yield after HPLC (from Nc1cncc(CCc2cccc(Nc3nc(Cl)ncc3F)c2)c1, cn_pd bond, 13-membered ring, Pd(OAc)2/Xantphos/Cs2CO3/Et3N, 1,4-dioxane, 87.0 mM, 150.0 °C, 2.0 h) was 37%, the IC50 [2] was 13 nM and the IC50 [3] was 28 nM. The IC50 [4] was 111 nM, the IC50 (TYK2) was 15 nM and the “ALK % inhibition at a concentration” value [5] was 26%.

In the case of Clc1cnc2nc1Nc1cccc(c1)/C=C\c1cncc(c1)N2 [Example C20, (14Z)-6-Chloro-2,4,8,18,22-pentaazatetracyclo[14.3.1.1(3,7).1(9,13)]docosa-1(20),3(22),4,6,9(21),10,12,14,16,18-decaene bis(trifluoroacetate)], the ring closure, yield after HPLC (from Nc1cncc(/C=C\c2cccc(Nc3nc(Cl)ncc3Cl)c2)c1, cn_pd bond, 13-membered ring, Pd(OAc)2/Xantphos/Cs2CO3/Et3N, 1,4-dioxane, 70.0 mM, 150.0 °C, 1.0 h) is reported as 30%, the IC50 [2] is reported as 2.9 nM and the IC50 [3] is reported as 2.3 nM. The IC50 [4] was 13 nM, the IC50 (TYK2) was 4.4 nM and the “ALK % inhibition at a concentration” value [5] was 26%.

O=C(CC1CCN(c2cccc(Cl)n2)CC1)Nc1ccc2cc1CCc1cncc(c1)Nc1ncc(Cl)c(n1)N2 [Example A180, N-[6-Chloro-2,4,8,18,22-pentaazatetracyclo[14.3.1.1(3,7).1(9,13)]docosa-1(20),3(22),4,6,9(21),10,12,16,18-nonaen-12-yl]-2-[1-(6-chloropyridin-2-yl)piperidin-4-yl]acetamide tris(trifluoroacetate)] showed an IC50 [2, 7] of 13 nM, an IC50 [3, 8] greater than 200 nM and an IC50 [4, 9] greater than 200 nM. For the same compound, the IC50 (TYK2) was greater than 200 nM and the “ALK % of inhibition” value [5, 10] was 13%.

Cc1ccc(Cl)cc1NC(=O)Nc1ccc2cc1CCc1cccc(c1)Nc1ncc(Cl)c(n1)N2 [Example B123, N-(5-Chloro-2-methylphenyl)-N′-[6-chloro-2,4,8,22-tetraazatetracyclo[14.3.1.1(3,7).1(9,13)]docosa-1(20),3(22),4,6,9(21),10,12,16,18-nonaen-12-yl]urea trifluoroacetate] gave an IC50 ([2]; Table B1) of 7.9 nM, an IC50 ([3]; Table B1) of 15 nM and an IC50 ([4]; Table B1) of 110 nM. The IC50 (TYK2; Table B1) was 32 nM and the “ALK % of inhibition” value [5, 6] was 16%.

For Cc1cccc(C(=O)Nc2ccc3cc2CCc2cccc(c2)Nc2ncc(Cl)c(n2)N3)c1 [Example B46, N-[6-Chloro-2,4,8,22-tetraazatetracyclo[14.3.1.1(3,7).1(9,13)]docosa-1(20), 3(22),4,6,9(21),10,12,16,18-nonaen-12-yl]-3-methylbenzamide trifluoroacetate], the IC50 ([2]; Table B1) was 2.5 nM, the IC50 ([3]; Table B1) was 2.3 nM and the IC50 ([4]; Table B1) was 9.7 nM. The IC50 (TYK2; Table B1) was 3.6 nM and the IC50 ([5]; Table B1, cells without percent sign) was 330 nM.

With O=C(NCc1ccco1)Nc1ccc2cc1CCc1cccc(c1)Nc1ncc(Cl)c(n1)N2 [Example B117, N-[6-Chloro-2,4,8,22-tetraazatetracyclo[14.3.1.1(3,7).1(9,13)]docosa-1(20), 3(22),4,6,9(21),10,12,16,18-nonaen-12-yl]-N′-(2-furylmethyl)urea trifluoroacetate] the IC50 ([2]; Table B1) was 1.1 nM, the IC50 ([3]; Table B1) was 2.8 nM and the IC50 ([4]; Table B1) was 17 nM. The IC50 (TYK2; Table B1) was 4.5 nM and the “ALK % of inhibition” value [5, 6] was 21%.

Cc1cc(C(=O)N2CC[C@@H](C(=O)Nc3ccc4cc3CCc3cccc(c3)Nc3ncc(Cl)c(n3)N4)C2)no1 [Example A122, (3R)—N-[6-Chloro-2,4,8,22-tetraazatetracyclo[14.3.1.1(3,7).1(9,13)]docosa-1(20),3(22),4,6,9(21),10,12,16,18-nonaen-12-yl]-1-[(5-methylisoxazol-3-yl)carbonyl]pyrrolidine-4-carboxamide trifluoroacetate] showed an IC50 [2, 7] of 7.2 nM, an IC50 [3, 8] of 3.9 nM and an IC50 [4, 9] of 7.3 nM. For the same compound, the IC50 (TYK2) was 17 nM and the “ALK % of inhibition” value [5, 10] was 52%.

Cc1cc(C(=O)N2CCC(CC(=O)Nc3ccc4cc3CCc3cncc(c3)Nc3ncc(Cl)c(n3)N4)CC2)no1 [Example A101, N-[6-Chloro-2,4,8,18,22-pentaazatetracyclo[14.3.1.1(3,7).1(9,13)]docosa-1(20),3(22),4,6,9(21),10,12,16,18-nonaen-12-yl]-2-{1-[(5-methylisoxazol-3-yl)carbonyl]piperidin-4-yl}acetamide bis(trifluoroacetate)] showed an IC50 [2, 7] of 0.5 nM, an IC50 [3, 8] of 10 nM and an IC50 [4, 9] of 128 nM. For the same compound, the IC50 (TYK2) was 3.4 nM and the “ALK % of inhibition” value [5, 10] was 29%.
